Tests used:
Experiment in all cases: relative viability (nuclei count vs DMSO), 5 days (fraction); higher = more cells survive
[1] = tested on: LCLC-103H
Method in brief: (§1)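 Lung cancer cell lines in 1536-well plates were dosed by pin tool the day after seeding, either with one drug alone or with a fixed anchor-drug dose plus five library-drug doses (not always all listed) in √10 steps. After 5 days, cells were fixed and their nuclei stained in one step (final 0.05% Triton X-100, 1% formaldehyde, 1 ug/ml Hoechst), then counted on 4× images. Relative viability is the nuclei count in treated wells divided by that in vehicle wells. Values are medians of duplicate plates.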

[2] = tested on: NCI-H358
Method in brief: as §1

[3] = tested on: EMC-BAC-2
Method in brief: as §1

[4] = tested on: NCI-H596
Method in brief: as §1

[5] = tested on: HCC-44
Method in brief: as §1

[6] = tested on: SW 1573
Method in brief: as §1

[7] = tested on: HCC-827
Method in brief: as §1

[8] = tested on: NCI-H2087
Method in brief: as §1

[9] = tested on: EKVX
Method in brief: as §1

[10] = tested on: NCI-H2347
Method in brief: as §1

[11] = tested on: BEN
Method in brief: as §1

[12] = tested on: EPLC-272H
Method in brief: as §1

[13] = tested on: NCI-H1651
Method in brief: as §1

[14] = tested on: A-427
Method in brief: as §1

[15] = tested on: LXF-289
Method in brief: as §1

[16] = tested on: LK-2
Method in brief: as §1

[17] = tested on: NCI-H1915
Method in brief: as §1

[18] = tested on: NCI-H460
Method in brief: as §1

[19] = tested on: 201T
Method in brief: as §1

[20] = tested on: NCI-H1793
Method in brief: as §1

[21] = tested on: NCI-H2126
Method in brief: as §1

[22] = tested on: COR-L23
Method in brief: as §1

## O=c1[nH]c2ccccc2n1C1CCN(CCCC(c2ccc(F)cc2)c2ccc(F)cc2)CC1 [Pimozide] + C[C@]1(O)C[C@@H](c2nc(-c3ccc4ccc(-c5ccccc5)nc4c3)c3c(N)nccn32)C1 [Linsitinib] (partner 1 µM)
[1]; first compound 0.08 µM
  relative viability: 1.01
[1]; first compound 0.253 µM
  relative viability: 1.02
[1]; first compound 0.8 µM
  relative viability: 1
[1]; first compound 2.53 µM
  relative viability: 1.07
[1]; first compound 8 µM
  relative viability: 1.38
[2]; first compound 0.08 µM
  relative viability: 0.739
[2]; first compound 0.253 µM
  relative viability: 0.852
[2]; first compound 0.8 µM
  relative viability: 0.649
[2]; first compound 2.53 µM
  relative viability: 0.643
[2]; first compound 8 µM
  relative viability: 0.693
[3]; first compound 0.08 µM
  relative viability: 0.768
[3]; first compound 0.253 µM
  relative viability: 0.787
[3]; first compound 0.8 µM
  relative viability: 0.828
[3]; first compound 2.53 µM
  relative viability: 0.828
[3]; first compound 8 µM
  relative viability: 0.749
[4]; first compound 0.08 µM
  relative viability: 1.16
[4]; first compound 0.253 µM
  relative viability: 1.12
[4]; first compound 0.8 µM
  relative viability: 1.04
[4]; first compound 2.53 µM
  relative viability: 0.895
[4]; first compound 8 µM
  relative viability: 0.998
[5]; first compound 0.08 µM
  relative viability: 0.635
[5]; first compound 0.253 µM
  relative viability: 0.703
[5]; first compound 0.8 µM
  relative viability: 0.64
[5]; first compound 2.53 µM
  relative viability: 0.653
[5]; first compound 8 µM
  relative viability: 0.685
[6]; first compound 0.08 µM
  relative viability: 0.744
[6]; first compound 0.253 µM
  relative viability: 0.778
[6]; first compound 0.8 µM
  relative viability: 0.75
[6]; first compound 2.53 µM
  relative viability: 0.721
[6]; first compound 8 µM
  relative viability: 0.853
[7]; first compound 0.253 µM
  relative viability: 0.986
[7]; first compound 0.8 µM
  relative viability: 0.915
[7]; first compound 2.53 µM
  relative viability: 0.944
[7]; first compound 8 µM
  relative viability: 0.939
[8]; first compound 0.08 µM
  relative viability: 0.904
[8]; first compound 0.253 µM
  relative viability: 0.869
[8]; first compound 0.8 µM
  relative viability: 0.917
[8]; first compound 2.53 µM
  relative viability: 1.04
[8]; first compound 8 µM
  relative viability: 0.96
[9]; first compound 0.253 µM
  relative viability: 0.837
[9]; first compound 0.8 µM
  relative viability: 0.901
[9]; first compound 2.53 µM
  relative viability: 0.969
[9]; first compound 8 µM
  relative viability: 0.953
[10]; first compound 0.08 µM
  relative viability: 1.03
[10]; first compound 0.253 µM
  relative viability: 0.941
[10]; first compound 0.8 µM
  relative viability: 0.836
[10]; first compound 2.53 µM
  relative viability: 0.944
[10]; first compound 8 µM
  relative viability: 0.958
[11]; first compound 0.08 µM
  relative viability: 1.07
[11]; first compound 0.253 µM
  relative viability: 1.02
[11]; first compound 0.8 µM
  relative viability: 0.856
[11]; first compound 2.53 µM
  relative viability: 0.88
[11]; first compound 8 µM
  relative viability: 0.892
[12]; first compound 0.08 µM
  relative viability: 0.913
[12]; first compound 0.253 µM
  relative viability: 1.15
[12]; first compound 0.8 µM
  relative viability: 1.21
[12]; first compound 2.53 µM
  relative viability: 1.17
[12]; first compound 8 µM
  relative viability: 1.09
[13]; first compound 0.08 µM
  relative viability: 0.897
[13]; first compound 0.253 µM
  relative viability: 1
[13]; first compound 0.8 µM
  relative viability: 0.922
[13]; first compound 2.53 µM
  relative viability: 0.97
[13]; first compound 8 µM
  relative viability: 0.951
[14]; first compound 0.08 µM
  relative viability: 0.985
[14]; first compound 0.253 µM
  relative viability: 1.14
[14]; first compound 0.8 µM
  relative viability: 1.13
[14]; first compound 2.53 µM
  relative viability: 1.15
[14]; first compound 8 µM
  relative viability: 1.08
[15]; first compound 0.08 µM
  relative viability: 0.928
[15]; first compound 0.253 µM
  relative viability: 0.902
[15]; first compound 0.8 µM
  relative viability: 0.964
[15]; first compound 2.53 µM
  relative viability: 0.946
[15]; first compound 8 µM
  relative viability: 0.886
[16]; first compound 0.08 µM
  relative viability: 0.52
[16]; first compound 0.253 µM
  relative viability: 0.543
[16]; first compound 0.8 µM
  relative viability: 0.493
[16]; first compound 2.53 µM
  relative viability: 0.37
[16]; first compound 8 µM
  relative viability: 0.371
[17]; first compound 0.08 µM
  relative viability: 1.09
[17]; first compound 0.253 µM
  relative viability: 1.06
[17]; first compound 0.8 µM
  relative viability: 0.921
[17]; first compound 2.53 µM
  relative viability: 1.09
[17]; first compound 8 µM
  relative viability: 1.1
[18]; first compound 0.08 µM
  relative viability: 0.964
[18]; first compound 0.253 µM
  relative viability: 0.725
[18]; first compound 0.8 µM
  relative viability: 0.707
[18]; first compound 2.53 µM
  relative viability: 0.727
[18]; first compound 8 µM
  relative viability: 0.649
[19]; first compound 0.08 µM
  relative viability: 1
[19]; first compound 0.253 µM
  relative viability: 1.01
[19]; first compound 0.8 µM
  relative viability: 1
[19]; first compound 2.53 µM
  relative viability: 1.05
[19]; first compound 8 µM
  relative viability: 0.884
[20]; first compound 0.08 µM
  relative viability: 0.871
[20]; first compound 0.253 µM
  relative viability: 0.612
[20]; first compound 0.8 µM
  relative viability: 0.861
[20]; first compound 2.53 µM
  relative viability: 0.88
[20]; first compound 8 µM
  relative viability: 0.831
[21]; first compound 0.08 µM
  relative viability: 0.747
[21]; first compound 0.253 µM
  relative viability: 0.662
[21]; first compound 0.8 µM
  relative viability: 0.713
[21]; first compound 2.53 µM
  relative viability: 0.74
[21]; first compound 8 µM
  relative viability: 0.774
[22]; first compound 0.08 µM
  relative viability: 0.956
[22]; first compound 0.253 µM
  relative viability: 0.76
[22]; first compound 0.8 µM
  relative viability: 0.832
[22]; first compound 2.53 µM
  relative viability: 0.887
[22]; first compound 8 µM
  relative viability: 0.84
